According to patent US20120295907A1, “INSECTICIDAL COMPOUNDS” (SYNGENTA CROP PROTECTION, LLC, priority 2009, published 2012):
Read-outs that look alike come from different tables or passages of the source.

What was measured:
Format in all cases: in vivo
Spodoptera littoralis = Spodoptera littoralis (Egyptian Cotton Leafworm) cotton leaf disc spray test; conditions: foliar, 72 h, 200 ppm spray on cotton leaf discs, L1 larvae, mortality, feeding behavior, growth regulation 3 DAT
Heliothis virescens = Heliothis virescens (Tobacco Budworm) egg test on artificial diet; conditions: 96 h, 200 ppm (concentration in well 18 ppm), eggs 0-24 h old on artificial diet, 4 days, egg mortality, larval mortality, growth regulation
Plutella xylostella = Plutella xylostella (Diamond Back Moth) artificial diet MTP test; conditions: 144 h, 200 ppm (concentration in well 18 ppm), L2 larvae, 6 days, larval mortality, growth regulation
Diabrotica balteata = Diabrotica balteata (Corn Root Worm) artificial diet MTP test; conditions: 120 h, 200 ppm (concentration in well 18 ppm), L2 larvae, 5 days, larval mortality, growth regulation
Thrips tabaci = Thrips tabaci (Onion Thrips) sunflower leaf disc spray test; conditions: foliar, 168 h, 200 ppm spray on sunflower leaf discs, population of mixed ages, 7 days, mortality
Tetranychus urticae = Tetranychus urticae (Two-Spotted Spider Mite) bean leaf disc spray test; conditions: foliar, 192 h, read-out: control of Tetranychus urticae
[1] = 200 ppm spray on bean leaf discs, mite populations of mixed ages, 8 days, egg, larval and adult mortality

Measured: pest or weed control at 200 ppm

COc1c(NC(=O)c2cccc(CC#N)c2)cccc1C(=O)Nc1c(Cl)cc(C(F)(C(F)(F)F)C(F)(F)C(F)(F)F)cc1Br (stereo not drawn) [B110]
≥ 80%: Spodoptera littoralis | Heliothis virescens | Plutella xylostella | Diabrotica balteata | Thrips tabaci | Tetranychus urticae; [1]

COc1c(NC(=O)c2cc(C(F)(F)F)nn2C)cccc1C(=O)Nc1c(Cl)cc(C(F)(C(F)(F)F)C(F)(F)C(F)(F)F)cc1Br (stereo not drawn) [B113]
≥ 80%: Spodoptera littoralis | Heliothis virescens | Plutella xylostella | Diabrotica balteata | Thrips tabaci | Tetranychus urticae; [1]

COc1c(NC(=O)c2ccc(C(F)(F)F)nc2C)cccc1C(=O)Nc1c(Cl)cc(C(F)(C(F)(F)F)C(F)(F)C(F)(F)F)cc1Br (stereo not drawn) [B127]
≥ 80%: Spodoptera littoralis | Heliothis virescens | Plutella xylostella | Diabrotica balteata | Thrips tabaci | Tetranychus urticae; [1]

COc1c(NC(=O)c2sc(C)nc2C(F)(F)F)cccc1C(=O)Nc1c(Cl)cc(C(F)(C(F)(F)F)C(F)(F)C(F)(F)F)cc1Br (stereo not drawn) [B134]
≥ 80%: Spodoptera littoralis | Heliothis virescens | Plutella xylostella | Diabrotica balteata | Thrips tabaci | Tetranychus urticae; [1]

COc1c(NC(=O)c2ccc(Br)cc2Cl)cccc1C(=O)Nc1c(Cl)cc(C(F)(C(F)(F)F)C(F)(F)C(F)(F)F)cc1Br (stereo not drawn) [B135]
≥ 80%: Spodoptera littoralis | Heliothis virescens | Plutella xylostella | Diabrotica balteata | Thrips tabaci | Tetranychus urticae; [1]

COc1c(NC(=O)c2ccc([N+](=O)[O-])cc2C(F)(F)F)cccc1C(=O)Nc1c(Cl)cc(C(F)(C(F)(F)F)C(F)(F)C(F)(F)F)cc1Br (stereo not drawn) [B178]
≥ 80%: Spodoptera littoralis | Heliothis virescens | Plutella xylostella | Diabrotica balteata | Thrips tabaci | Tetranychus urticae; [1]

COc1c(NC(=O)c2ccc([N+](=O)[O-])cc2[N+](=O)[O-])cccc1C(=O)Nc1c(Cl)cc(C(F)(C(F)(F)F)C(F)(F)C(F)(F)F)cc1Br (stereo not drawn) [B180]
≥ 80%: Spodoptera littoralis | Heliothis virescens | Plutella xylostella | Diabrotica balteata | Thrips tabaci | Tetranychus urticae

COc1c(NC(=O)c2cccc([N+](=O)[O-])c2Cl)cccc1C(=O)Nc1c(Cl)cc(C(F)(C(F)(F)F)C(F)(F)C(F)(F)F)cc1Br (stereo not drawn) [B183]
≥ 80%: Spodoptera littoralis | Heliothis virescens | Plutella xylostella | Diabrotica balteata | Thrips tabaci | Tetranychus urticae; [1]

COc1c(NC(=O)c2cccc(Cl)c2Cl)cccc1C(=O)Nc1c(Cl)cc(C(F)(C(F)(F)F)C(F)(F)C(F)(F)F)cc1Br (stereo not drawn) [B184]
≥ 80%: Spodoptera littoralis | Heliothis virescens | Plutella xylostella | Diabrotica balteata | Thrips tabaci | Tetranychus urticae; [1]

COc1c(NC(=O)c2ccc([N+](=O)[O-])c(F)c2)cccc1C(=O)Nc1c(Cl)cc(C(F)(C(F)(F)F)C(F)(F)C(F)(F)F)cc1Br (stereo not drawn) [B192]
≥ 80%: Spodoptera littoralis | Heliothis virescens | Plutella xylostella | Diabrotica balteata | Thrips tabaci | Tetranychus urticae; [1]

COc1c(NC(=O)c2ccc(C#N)cc2C)cccc1C(=O)Nc1c(Cl)cc(C(F)(C(F)(F)F)C(F)(F)C(F)(F)F)cc1Cl (stereo not drawn) [C2, N-[2,6-dichloro-4-(1,2,2,3,3,3-hexafluoro-1-trifluoromethylpropyl)phenyl]-3-(4-cyano-2-methylbenzoylamino)-2-methoxybenzamide]
≥ 80%: Spodoptera littoralis | Heliothis virescens | Plutella xylostella | Diabrotica balteata | Thrips tabaci | Tetranychus urticae; [1]

COc1c(NC(=O)c2ccc([N+](=O)[O-])cc2)cccc1C(=O)Nc1c(Cl)cc(C(F)(C(F)(F)F)C(F)(F)C(F)(F)F)cc1Cl (stereo not drawn) [C7]
≥ 80%: Spodoptera littoralis | Heliothis virescens | Plutella xylostella | Diabrotica balteata | Thrips tabaci | Tetranychus urticae; [1]

COc1c(NC(=O)c2ccc(F)cc2C)cccc1C(=O)Nc1c(Cl)cc(C(F)(C(F)(F)F)C(F)(F)C(F)(F)F)cc1Cl (stereo not drawn) [C9]
≥ 80%: Spodoptera littoralis | Heliothis virescens | Plutella xylostella | Diabrotica balteata | Thrips tabaci | Tetranychus urticae; [1]

COc1c(NC(=O)c2ccc([N+](=O)[O-])cc2Cl)cccc1C(=O)Nc1c(Cl)cc(C(F)(C(F)(F)F)C(F)(F)C(F)(F)F)cc1Cl (stereo not drawn) [C11]
≥ 80%: Spodoptera littoralis | Heliothis virescens | Plutella xylostella | Diabrotica balteata | Thrips tabaci | Tetranychus urticae; [1]

COc1c(NC(=O)c2ccc(OC(F)(F)F)cc2)cccc1C(=O)Nc1c(Cl)cc(C(F)(C(F)(F)F)C(F)(F)C(F)(F)F)cc1Cl (stereo not drawn) [C13]
≥ 80%: Spodoptera littoralis | Heliothis virescens | Plutella xylostella | Diabrotica balteata | Thrips tabaci | Tetranychus urticae; [1]

COc1c(NC(=O)c2ccccc2C(F)(F)F)cccc1C(=O)Nc1c(Cl)cc(C(F)(C(F)(F)F)C(F)(F)C(F)(F)F)cc1Cl (stereo not drawn) [C20]
≥ 80%: Spodoptera littoralis | Heliothis virescens | Plutella xylostella | Diabrotica balteata | Thrips tabaci | Tetranychus urticae; [1]

COc1c(NC(=O)c2snnc2C)cccc1C(=O)Nc1c(Cl)cc(C(F)(C(F)(F)F)C(F)(F)C(F)(F)F)cc1Cl (stereo not drawn) [C21]
≥ 80%: Spodoptera littoralis | Heliothis virescens | Plutella xylostella | Diabrotica balteata | Thrips tabaci | Tetranychus urticae; [1]

COc1c(NC(=O)c2cccc(F)c2F)cccc1C(=O)Nc1c(Cl)cc(C(F)(C(F)(F)F)C(F)(F)C(F)(F)F)cc1Cl (stereo not drawn) [C22]
≥ 80%: Spodoptera littoralis | Heliothis virescens | Plutella xylostella | Diabrotica balteata | Thrips tabaci | Tetranychus urticae; [1]

COc1c(NC(=O)c2ccc(F)cc2F)cccc1C(=O)Nc1c(Cl)cc(C(F)(C(F)(F)F)C(F)(F)C(F)(F)F)cc1Cl (stereo not drawn) [C23]
≥ 80%: Spodoptera littoralis | Heliothis virescens | Plutella xylostella | Diabrotica balteata | Thrips tabaci | Tetranychus urticae; [1]

COc1c(NC(=O)c2ccc(F)cc2C)cccc1C(=O)Nc1c(Cl)cc(C(F)(C(F)(F)F)C(F)(F)F)cc1Cl [E7]
≥ 80%: Spodoptera littoralis | Heliothis virescens | Plutella xylostella | Diabrotica balteata | Thrips tabaci | Tetranychus urticae; [1]

COc1c(NC(=O)c2ccc(F)cc2Cl)cccc1C(=O)Nc1c(Cl)cc(C(F)(C(F)(F)F)C(F)(F)F)cc1Cl [E19]
≥ 80%: Spodoptera littoralis | Heliothis virescens | Plutella xylostella | Diabrotica balteata | Thrips tabaci | Tetranychus urticae; [1]
